# From ChEMBL document CHEMBL3046126, “Synthesis and Herbicidal Activity of New Oxazolidinedione Derivatives” (J Pestic Sci, 1999)
# What was measured:
# [1] = tested on: Echinochloa crus-galli; assay: Early post-emergence herbicidal activity against Echinochloa crus-galli (barnyard grass) assessed as phytotoxic weed control visual ratings at 50 kg ai/ha measured after 14 days post treatment under flooded conditions; format: functional
# [2] = tested on: Pontederia vaginalis; assay: Early post-emergence herbicidal activity against Monochoria vaginalis assessed as phytotoxic weed control visual ratings at 50 kg ai/ha measured after 14 days post treatment under flooded conditions; format: functional
# [3] = tested on: Ammannia multiflora; assay: Early post-emergence herbicidal activity against Ammannia multiflora assessed as phytotoxic weed control visual ratings at 50 kg ai/ha measured after 14 days post treatment under flooded conditions; format: functional
# [4] = tested on: Oryza sativa; assay: Pre-emergence phytotoxicity against Oryza sativa cv. Koshihikari (rice) assessed as phytotoxic crop injury visual ratings at 2.5 kg ai/ha measured after 14 days post treatment under flooded conditions; format: organism-based; conditions: in vivo, other, 336 h
# [5] = tested on: Echinochloa oryzicola; assay: Pre-emergence herbicidal activity against Echinochloa oryzicola assessed as phytotoxic weed control visual ratings at 2.5 kg ai/ha measured after 14 days post treatment under flooded conditions; format: functional
# [6] = tested on: Schoenoplectiella juncoides; assay: Pre-emergence herbicidal activity against Schoenoplectiella juncoides assessed as phytotoxic weed control visual ratings at 2.5 kg ai/ha measured after 14 days post treatment under flooded conditions; format: functional
# [7] = tested on: Rotala indica; assay: Pre-emergence herbicidal activity against Rotala indica assessed as phytotoxic weed control visual ratings at 2.5 kg ai/ha measured after 14 days post treatment under flooded conditions; format: functional
# [8] = tested on: Cyperus difformis; assay: Pre-emergence herbicidal activity against Cyperus difformis assessed as phytotoxic weed control visual ratings at 2.5 kg ai/ha measured after 14 days post treatment under flooded conditions; format: functional
# [9] = tested on: Pontederia vaginalis; assay: Pre-emergence herbicidal activity against Monochoria vaginalis assessed as phytotoxic weed control visual ratings at 2.5 kg ai/ha measured after 14 days post treatment under flooded conditions; format: functional
# [10] = tested on: Elatine triandra; assay: Pre-emergence herbicidal activity against Elatine triandra assessed as phytotoxic weed control visual ratings at 2.5 kg ai/ha measured after 14 days post treatment under flooded conditions; format: functional
# [11] = tested on: Lindernia procumbens; assay: Pre-emergence herbicidal activity against Lindernia procumbens assessed as phytotoxic weed control visual ratings at 2.5 kg ai/ha measured after 14 days post treatment under flooded conditions; format: functional
# [12] = tested on: Oryza sativa; assay: Pre-emergence phytotoxicity against Oryza sativa cv. Koshihikari (rice) assessed as induction of leaf sheath browning at 2.5 kg ai/ha measured after 14 days post treatment under flooded conditions; format: organism-based; conditions: in vivo, other, 336 h
# [13] = tested on: Lindernia procumbens; assay: Pre-emergence herbicidal activity against Lindernia procumbens assessed as phytotoxic weed control visual ratings at 25 g ai/ha measured after 14 days post treatment under flooded conditions; format: functional
# [14] = tested on: Digitaria ciliaris; assay: Pre-emergence herbicidal activity against Digitaria ciliaris assessed as phytotoxic weed control visual ratings at 500 g ai/ha measured after 14 days post treatment under upland field conditions; format: functional
# [15] = tested on: Amaranthus viridis; assay: Pre-emergence herbicidal activity against Amaranthus viridis assessed as phytotoxic weed control visual ratings at 500 g ai/ha measured after 14 days post treatment under upland field conditions; format: functional
# [16] = tested on: Cyperus difformis; assay: Pre-emergence herbicidal activity against Cyperus difformis assessed as phytotoxic weed control visual ratings at 25 g ai/ha measured after 14 days post treatment under flooded conditions; format: functional
# [17] = tested on: Oryza sativa; assay: Pre-emergence phytotoxicity against Oryza sativa cv. Koshihikari (rice) assessed as phytotoxic crop injury visual ratings at 25 g ai/ha measured after 14 days post treatment under flooded conditions; format: organism-based; conditions: in vivo, other, 336 h
# [18] = tested on: Zea mays; assay: Pre-emergence phytotoxicity against Zea mays (maize) assessed as phytotoxic crop injury visual ratings at 500 g ai/ha measured after 14 days post treatment under upland field conditions; format: organism-based; conditions: in vivo, other, 336 h
# [19] = tested on: Elatine triandra; assay: Pre-emergence herbicidal activity against Elatine triandra assessed as phytotoxic weed control visual ratings at 25 g ai/ha measured after 14 days post treatment under flooded conditions; format: functional
# [20] = tested on: Pontederia vaginalis; assay: Pre-emergence herbicidal activity against Monochoria vaginalis assessed as phytotoxic weed control visual ratings at 25 g ai/ha measured after 14 days post treatment under flooded conditions; format: functional
# [21] = tested on: Oryza sativa; assay: Pre-emergence phytotoxicity against Oryza sativa cv. Koshihikari (rice) assessed as phytotoxic crop injury visual ratings measured after 14 days post treatment; format: organism-based; conditions: in vivo, 336 h
# [22] = tested on: Echinochloa oryzicola; assay: Post-emergence herbicidal activity against Echinochloa oryzicola assessed as phytotoxic weed control visual ratings measured after 14 days post treatment; format: functional
# [23] = tested on: Echinochloa crus-galli; assay: Pre-emergence herbicidal activity against Echinochloa crus-galli (barnyard grass) assessed as phytotoxic weed control visual ratings at 500 g ai/ha measured after 14 days post treatment under upland field conditions; format: functional
# [24] = tested on: Oryza sativa; assay: Post-emergence phytotoxicity against Oryza sativa cv. Koshihikari (rice) assessed as phytotoxic crop injury visual ratings measured after 14 days post treatment; format: organism-based; conditions: in vivo, 336 h
# [25] = tested on: Echinochloa oryzicola; assay: Pre-emergence herbicidal activity against Echinochloa oryzicola assessed as phytotoxic weed control visual ratings at 25 g ai/ha measured after 14 days post treatment under flooded conditions; format: functional
# [26] = tested on: Chenopodium album; assay: Pre-emergence herbicidal activity against Chenopodium album assessed as phytotoxic weed control visual ratings at 500 g ai/ha measured after 14 days post treatment under upland field conditions; format: functional
# [27] = Selectivity index, ratio of ED10 for Oryza sativa to ED90 for Echinochloa oryzicola by post-emergence exposure method
# [28] = tested on: Echinochloa oryzicola; assay: Pre-emergence herbicidal activity against Echinochloa oryzicola assessed as phytotoxic weed control visual ratings measured after 14 days post treatment; format: functional
# [29] = Selectivity index, ratio of ED10 for Oryza sativa to ED90 for Echinochloa oryzicola by pre-emergence exposure method
# [30] = tested on: Schoenoplectiella juncoides; assay: Pre-emergence herbicidal activity against Schoenoplectiella juncoides assessed as phytotoxic weed control visual ratings at 25 g ai/ha measured after 14 days post treatment under flooded conditions; format: functional
# [31] = tested on: Rotala indica; assay: Pre-emergence herbicidal activity against Rotala indica assessed as phytotoxic weed control visual ratings at 25 g ai/ha measured after 14 days post treatment under flooded conditions; format: functional
# [32] = tested on: Rotala indica; assay: Pre-emergence herbicidal activity against Rotala indica assessed as phytotoxic weed control visual ratings at 1.25 kg ai/ha measured after 14 days post treatment under flooded conditions; format: functional
# [33] = tested on: Pontederia vaginalis; assay: Pre-emergence herbicidal activity against Monochoria vaginalis assessed as phytotoxic weed control visual ratings at 1.25 kg ai/ha measured after 14 days post treatment under flooded conditions; format: functional
# [34] = tested on: Oryza sativa; assay: Pre-emergence phytotoxicity against Oryza sativa cv. Koshihikari (rice) assessed as phytotoxic crop injury visual ratings at 1.25 kg ai/ha measured after 14 days post treatment under flooded conditions; format: organism-based; conditions: in vivo, other, 336 h
# [35] = tested on: Echinochloa oryzicola; assay: Pre-emergence herbicidal activity against Echinochloa oryzicola assessed as phytotoxic weed control visual ratings at 1.25 kg ai/ha measured after 14 days post treatment under flooded conditions; format: functional
# [36] = tested on: Lindernia procumbens; assay: Pre-emergence herbicidal activity against Lindernia procumbens assessed as phytotoxic weed control visual ratings at 1.25 kg ai/ha measured after 14 days post treatment under flooded conditions; format: functional
# [37] = tested on: Cyperus difformis; assay: Pre-emergence herbicidal activity against Cyperus difformis assessed as phytotoxic weed control visual ratings at 1.25 kg ai/ha measured after 14 days post treatment under flooded conditions; format: functional
# [38] = tested on: Schoenoplectiella juncoides; assay: Pre-emergence herbicidal activity against Schoenoplectiella juncoides assessed as phytotoxic weed control visual ratings at 1.25 kg ai/ha measured after 14 days post treatment under flooded conditions; format: functional
# [39] = tested on: Elatine triandra; assay: Pre-emergence herbicidal activity against Elatine triandra assessed as phytotoxic weed control visual ratings at 1.25 kg ai/ha measured after 14 days post treatment under flooded conditions; format: functional
smiles,measurement,setting,value
C#CCOc1cc(N2C(=O)OC(=C(C)C)C2=O)c(Cl)cc1Cl,Phytotoxicity,[1],90%
same,Phytotoxicity,[2],100%
same,Phytotoxicity,[3],90%
CC(C)=C1OC(=O)N(c2ccc(Cl)c(Cl)c2)C1=O,Phytotoxicity,[4],10%
same,Phytotoxicity,[5],10%
same,Phytotoxicity,[6],80%
same,Phytotoxicity,[7],100%
same,Phytotoxicity,[8],100%
same,Phytotoxicity,[9],80%
same,Phytotoxicity,[10],100%
same,Phytotoxicity,[11],100%
same,Activity,[12],Toxic
C#CCOc1cc(N2C(=O)OC(=C(C)C)C2=O)c(F)cc1Cl,Phytotoxicity,[1],100%
same,Phytotoxicity,[13],100%
same,Phytotoxicity,[14],100%
same,Phytotoxicity,[15],100%
same,Phytotoxicity,[16],100%
same,Phytotoxicity,[17],30%
same,Phytotoxicity,[18],10%
same,Phytotoxicity,[2],100%
same,Phytotoxicity,[19],100%
same,Phytotoxicity,[20],100%
same,ED10,[21],6.25 gAi/ha
same,ED90,[22],12.5 gAi/ha
same,Phytotoxicity,[23],80%
same,ED10,[24],25 gAi/ha
same,Phytotoxicity,[25],100%
same,Phytotoxicity,[26],100%
same,Selectivity Index,[27],2
same,ED90,[28],3.13 gAi/ha
same,Selectivity Index,[29],2
same,Phytotoxicity,[30],100%
same,Phytotoxicity,[31],100%
same,Phytotoxicity,[3],100%
CC(C)=C1OC(=O)N(c2ccc(Cl)cc2)C1=O,Phytotoxicity,[4],30%
same,Phytotoxicity,[5],100%
same,Phytotoxicity,[32],100%
same,Phytotoxicity,[6],100%
same,Phytotoxicity,[7],100%
same,Phytotoxicity,[33],100%
same,Phytotoxicity,[8],100%
same,Phytotoxicity,[34],10%
same,Phytotoxicity,[35],90%
same,Phytotoxicity,[9],100%
same,Phytotoxicity,[10],100%
same,Phytotoxicity,[36],100%
same,Phytotoxicity,[37],100%
same,Phytotoxicity,[11],100%
same,Activity,[12],Toxic
same,Phytotoxicity,[38],100%
same,Phytotoxicity,[39],100%
C#CCOc1cc(N2C(=O)OC(=C(C)C)C2=O)c(F)cc1Br,Phytotoxicity,[1],80%
same,Phytotoxicity,[2],100%
same,Phytotoxicity,[3],100%
CC(C)=C1OC(=O)N(c2ccc(Cl)cc2Cl)C1=O,Phytotoxicity,[4],20%
same,Phytotoxicity,[5],100%
same,Phytotoxicity,[6],100%
same,Phytotoxicity,[7],100%
same,Phytotoxicity,[8],100%
same,Phytotoxicity,[9],100%
same,Phytotoxicity,[10],100%
same,Phytotoxicity,[11],100%
same,Activity,[12],Toxic
CC(C)=C1OC(=O)N(c2cc(OC(C)C)c(Cl)cc2F)C1=O,Phytotoxicity,[13],100%
same,Phytotoxicity,[14],100%
same,Phytotoxicity,[15],100%
same,Phytotoxicity,[16],100%
same,Phytotoxicity,[17],0%
same,Phytotoxicity,[18],10%
same,Phytotoxicity,[19],100%
same,Phytotoxicity,[20],100%
same,ED10,[21],100 gAi/ha
same,ED90,[22],25 gAi/ha
same,Phytotoxicity,[23],90%
same,ED10,[24],150 gAi/ha
same,Phytotoxicity,[25],100%
same,Phytotoxicity,[26],100%
same,Selectivity Index,[27],6
same,ED90,[28],25 gAi/ha
same,Selectivity Index,[29],4
same,Phytotoxicity,[30],90%
same,Phytotoxicity,[31],100%
